Calls of active or inactive are those of the source.
Key:
Trypsin = Trypsin (Sus scrofa, UniProt P00761); test: trypsin protease activity blockade – biochemical, quenched peptide fluorescence, cherry-pick, selectivity assay for Rce1 protease inhibitor project, dose response (AID 488789)
CAAX prenyl protease 2 [1] = molecular target: T1, CAAX prenyl protease 2 (Saccharomyces cerevisiae S288c, UniProt Q03530); assay type: biochemical
T1 sequence (Q03530 whole entry): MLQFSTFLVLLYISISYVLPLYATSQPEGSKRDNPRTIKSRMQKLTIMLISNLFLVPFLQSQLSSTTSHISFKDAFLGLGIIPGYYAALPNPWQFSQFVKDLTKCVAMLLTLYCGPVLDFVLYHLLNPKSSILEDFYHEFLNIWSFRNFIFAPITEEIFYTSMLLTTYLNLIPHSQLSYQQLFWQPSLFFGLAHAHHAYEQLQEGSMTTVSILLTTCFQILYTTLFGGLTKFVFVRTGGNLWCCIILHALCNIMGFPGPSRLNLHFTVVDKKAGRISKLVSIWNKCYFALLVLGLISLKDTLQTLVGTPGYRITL

CAAX prenyl protease 2 [2] = molecular target: T2, CAAX prenyl protease 2 (Homo sapiens, UniProt Q9Y256); test: inhibition of Ras-converting CAAX protease Rce1 – biochemical, yeast membranes, quenched-peptide fluorescence, cherry-pick, dose response (AID 588849)
T2 sequence (Q9Y256 whole entry): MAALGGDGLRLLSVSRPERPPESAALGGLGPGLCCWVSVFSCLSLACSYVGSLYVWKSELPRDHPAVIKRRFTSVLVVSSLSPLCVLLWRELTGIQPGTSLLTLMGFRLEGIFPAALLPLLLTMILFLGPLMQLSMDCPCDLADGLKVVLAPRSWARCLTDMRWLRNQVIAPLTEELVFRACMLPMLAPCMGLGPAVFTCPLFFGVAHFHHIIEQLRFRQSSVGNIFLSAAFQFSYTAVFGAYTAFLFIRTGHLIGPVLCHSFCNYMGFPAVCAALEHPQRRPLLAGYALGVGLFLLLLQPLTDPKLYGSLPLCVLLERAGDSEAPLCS

Estrogen receptor = molecular target: T3, Estrogen receptor (Homo sapiens, UniProt P03372);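 note: potency for inhibiting coactivator peptide recruitment to the receptor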
T3 sequence (P03372 whole entry): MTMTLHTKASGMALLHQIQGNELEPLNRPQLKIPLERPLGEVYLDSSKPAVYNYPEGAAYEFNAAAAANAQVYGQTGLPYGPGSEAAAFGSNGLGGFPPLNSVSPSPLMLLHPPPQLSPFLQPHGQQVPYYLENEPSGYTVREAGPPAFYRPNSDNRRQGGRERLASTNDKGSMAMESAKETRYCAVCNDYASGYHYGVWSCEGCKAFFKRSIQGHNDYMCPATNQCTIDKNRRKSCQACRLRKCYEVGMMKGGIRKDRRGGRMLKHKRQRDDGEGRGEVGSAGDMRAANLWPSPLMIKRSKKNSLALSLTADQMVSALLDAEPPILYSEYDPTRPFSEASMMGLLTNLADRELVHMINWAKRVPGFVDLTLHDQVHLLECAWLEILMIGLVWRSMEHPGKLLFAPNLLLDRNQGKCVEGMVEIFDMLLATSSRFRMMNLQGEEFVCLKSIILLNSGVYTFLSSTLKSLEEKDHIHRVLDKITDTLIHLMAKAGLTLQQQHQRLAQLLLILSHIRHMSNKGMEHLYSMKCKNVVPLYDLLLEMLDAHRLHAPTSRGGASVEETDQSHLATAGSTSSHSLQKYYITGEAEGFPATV

Estrogen receptor beta [3] = molecular target: T4, Estrogen receptor beta (Homo sapiens, UniProt Q92731);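 note: recombinant ER-beta bound to coactivator SRC1 peptide in presence of estradiol agonist; inhibitors block coactivator peptide binding and lower the FRET signal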
T4 sequence (Q92731 whole entry): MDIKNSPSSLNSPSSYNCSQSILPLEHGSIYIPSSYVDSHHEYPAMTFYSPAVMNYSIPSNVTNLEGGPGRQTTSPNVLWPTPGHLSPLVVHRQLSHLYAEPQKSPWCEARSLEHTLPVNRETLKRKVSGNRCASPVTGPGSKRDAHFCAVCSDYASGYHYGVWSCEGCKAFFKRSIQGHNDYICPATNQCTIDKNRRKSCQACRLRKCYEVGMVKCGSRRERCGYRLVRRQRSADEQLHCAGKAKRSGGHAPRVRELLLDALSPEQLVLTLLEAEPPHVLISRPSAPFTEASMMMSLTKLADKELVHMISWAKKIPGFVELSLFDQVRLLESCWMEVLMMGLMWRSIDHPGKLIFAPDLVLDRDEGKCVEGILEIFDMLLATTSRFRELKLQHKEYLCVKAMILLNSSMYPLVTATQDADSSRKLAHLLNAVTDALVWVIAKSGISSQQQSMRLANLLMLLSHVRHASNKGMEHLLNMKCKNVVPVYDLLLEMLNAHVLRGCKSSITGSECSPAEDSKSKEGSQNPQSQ

Estrogen receptor beta [4] = molecular target: T4, Estrogen receptor beta; test: blockers of SRC-3 recruitment to ERβ – biochemical, ELISA, streptavidin-HRP readout, orthogonal assay, confirmation (AID 1060)
HeLa = test: ATP-based viability loss in HeLa cells – cell-based, CellTiter-Glo luminescence, cherry-pick samples, cytotoxicity control for MITF activator project, dose response (AID 540259); assay type: functional; details: Homo sapiens
[5] = molecular target: T5, RNA-binding protein pos-1 (Caenorhabditis elegans, UniProt G5EF15); test: disruptors of C. elegans POS-1 RNA interaction – biochemical, fluorescence polarization, dose response (AID 1964);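 note: purified POS-1 fused to maltose binding protein made in E. coli; potency of compounds blocking POS-1 binding to fluorescent RNA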
T5 sequence (G5EF15 whole entry): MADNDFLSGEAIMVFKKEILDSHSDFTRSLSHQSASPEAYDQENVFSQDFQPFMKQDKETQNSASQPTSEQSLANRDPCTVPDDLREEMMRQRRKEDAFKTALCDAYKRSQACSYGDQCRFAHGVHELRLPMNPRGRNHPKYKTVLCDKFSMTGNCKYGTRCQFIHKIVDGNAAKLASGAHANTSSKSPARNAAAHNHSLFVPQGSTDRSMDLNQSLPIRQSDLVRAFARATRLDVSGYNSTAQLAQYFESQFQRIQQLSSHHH

[6] = test system: Streptococcus sp. 'group A'; test: Streptococcus pyogenes SK(-)GAS viability under kanamycin – luminescence, BacTiterGlo, confirmation, counter-screen for streptokinase expression inhibitor project, dose response (AID 1900); assay type: functional, organism-based
[7] = molecular target: T6, Zinc finger protein mex-5 (Caenorhabditis elegans, UniProt Q9XUB2); test: potency of MEX-5 RNA-binding blockers – biochemical, C. elegans, fluorescence polarization, dose response (AID 1960)
T6 sequence (Q9XUB2 whole entry): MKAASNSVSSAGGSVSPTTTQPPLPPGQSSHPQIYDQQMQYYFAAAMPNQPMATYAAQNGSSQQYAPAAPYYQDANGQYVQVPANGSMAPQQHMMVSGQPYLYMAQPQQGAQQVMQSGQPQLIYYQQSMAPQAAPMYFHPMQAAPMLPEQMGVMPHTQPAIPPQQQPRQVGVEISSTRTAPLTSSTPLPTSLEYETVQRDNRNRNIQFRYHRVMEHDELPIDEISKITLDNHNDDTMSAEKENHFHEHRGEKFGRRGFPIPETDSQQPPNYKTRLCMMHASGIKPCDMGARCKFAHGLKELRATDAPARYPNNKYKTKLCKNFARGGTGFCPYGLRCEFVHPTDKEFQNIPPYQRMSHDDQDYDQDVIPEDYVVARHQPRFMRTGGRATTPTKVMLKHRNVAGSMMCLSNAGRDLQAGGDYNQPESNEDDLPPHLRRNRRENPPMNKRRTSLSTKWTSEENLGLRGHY

Streptococcus = test: GAS UMAA2166 growth inhibition – luminescence, BacTiterGlo, counter-screen for streptokinase expression inhibitor project, dose response (AID 1915); assay type: functional, organism-based;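 note: potency for reduction of bacterial viability or growth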
HEK293 [8] = test: inhibition of NOD1-driven NF-kB reporter – cell-based, luminescence, uHTS, primary screen (AID 1578); assay type: functional; details: Homo sapiens
HEK293 [9] = test: cells; assay type: functional, cell-based; details: Homo sapiens
HEK293 [10] = test: cells; assay type: functional, cell-based; details: Homo sapiens; remark: listed apart in the source
[11] = molecular target: T7, Nucleotide-binding oligomerization domain-containing protein 2 (Homo sapiens, UniProt Q9HC29); test: inhibition of NOD2-driven NF-kB reporter – cell-based, luminescence, uHTS, HEK293 (AID 1566); assay type: functional
T7 sequence (Q9HC29 whole entry, the tested form may be a part): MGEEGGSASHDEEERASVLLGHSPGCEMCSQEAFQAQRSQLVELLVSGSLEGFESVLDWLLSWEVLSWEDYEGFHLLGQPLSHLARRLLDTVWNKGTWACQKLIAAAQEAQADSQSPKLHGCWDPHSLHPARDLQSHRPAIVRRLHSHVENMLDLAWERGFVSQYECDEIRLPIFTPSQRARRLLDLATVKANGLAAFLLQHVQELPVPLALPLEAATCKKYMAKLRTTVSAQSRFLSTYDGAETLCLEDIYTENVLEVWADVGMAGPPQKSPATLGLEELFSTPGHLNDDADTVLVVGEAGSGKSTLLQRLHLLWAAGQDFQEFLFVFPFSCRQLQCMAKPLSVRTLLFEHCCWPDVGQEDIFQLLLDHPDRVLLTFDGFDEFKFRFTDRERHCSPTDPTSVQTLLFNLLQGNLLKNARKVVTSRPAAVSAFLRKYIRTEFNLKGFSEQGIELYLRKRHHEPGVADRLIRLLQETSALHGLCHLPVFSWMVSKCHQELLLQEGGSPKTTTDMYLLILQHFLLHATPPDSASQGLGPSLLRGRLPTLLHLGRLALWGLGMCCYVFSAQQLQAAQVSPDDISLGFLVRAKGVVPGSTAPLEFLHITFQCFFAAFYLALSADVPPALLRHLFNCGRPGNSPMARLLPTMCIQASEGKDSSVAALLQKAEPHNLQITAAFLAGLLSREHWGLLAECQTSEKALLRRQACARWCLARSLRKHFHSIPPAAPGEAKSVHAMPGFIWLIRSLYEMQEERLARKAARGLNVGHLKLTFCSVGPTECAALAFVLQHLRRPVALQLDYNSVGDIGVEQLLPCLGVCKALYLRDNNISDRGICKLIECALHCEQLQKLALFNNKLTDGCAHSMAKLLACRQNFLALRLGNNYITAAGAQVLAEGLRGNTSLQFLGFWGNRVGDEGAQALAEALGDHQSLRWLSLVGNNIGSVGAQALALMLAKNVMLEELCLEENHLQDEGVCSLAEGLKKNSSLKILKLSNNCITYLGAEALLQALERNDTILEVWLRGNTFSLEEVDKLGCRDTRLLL

HEK293 [12] = test: NOD2 signaling inhibitors in MDP-stimulated cells, cell-based, uHTS, luminescence (AID 2001); assay type: functional; details: Homo sapiens
HEK293 [13] = test: cells; assay type: functional, cell-based; details: Homo sapiens; remark: listed apart in the source
Tumor necrosis factor = Tumor necrosis factor (Homo sapiens, UniProt P01375); test: analog potency on TNFa NF-kB signaling – cell-based, revised, SAR follow-up (AID 2337); assay type: functional
Sequence of Tumor necrosis factor (P01375 whole entry, the tested form may be a part): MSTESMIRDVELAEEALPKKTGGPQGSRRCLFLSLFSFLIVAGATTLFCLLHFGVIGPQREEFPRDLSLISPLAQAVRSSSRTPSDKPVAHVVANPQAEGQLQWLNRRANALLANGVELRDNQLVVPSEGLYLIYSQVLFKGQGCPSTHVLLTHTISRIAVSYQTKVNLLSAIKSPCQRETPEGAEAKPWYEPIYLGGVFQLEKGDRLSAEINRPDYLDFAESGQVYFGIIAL

[14] = molecular target: T8, Nucleotide-binding oligomerization domain-containing protein 1 (Homo sapiens, UniProt Q9Y239); test: blockers of NOD1 pathway activity – revised, SAR follow-up (AID 2333); assay type: functional
T8 sequence (Q9Y239 whole entry): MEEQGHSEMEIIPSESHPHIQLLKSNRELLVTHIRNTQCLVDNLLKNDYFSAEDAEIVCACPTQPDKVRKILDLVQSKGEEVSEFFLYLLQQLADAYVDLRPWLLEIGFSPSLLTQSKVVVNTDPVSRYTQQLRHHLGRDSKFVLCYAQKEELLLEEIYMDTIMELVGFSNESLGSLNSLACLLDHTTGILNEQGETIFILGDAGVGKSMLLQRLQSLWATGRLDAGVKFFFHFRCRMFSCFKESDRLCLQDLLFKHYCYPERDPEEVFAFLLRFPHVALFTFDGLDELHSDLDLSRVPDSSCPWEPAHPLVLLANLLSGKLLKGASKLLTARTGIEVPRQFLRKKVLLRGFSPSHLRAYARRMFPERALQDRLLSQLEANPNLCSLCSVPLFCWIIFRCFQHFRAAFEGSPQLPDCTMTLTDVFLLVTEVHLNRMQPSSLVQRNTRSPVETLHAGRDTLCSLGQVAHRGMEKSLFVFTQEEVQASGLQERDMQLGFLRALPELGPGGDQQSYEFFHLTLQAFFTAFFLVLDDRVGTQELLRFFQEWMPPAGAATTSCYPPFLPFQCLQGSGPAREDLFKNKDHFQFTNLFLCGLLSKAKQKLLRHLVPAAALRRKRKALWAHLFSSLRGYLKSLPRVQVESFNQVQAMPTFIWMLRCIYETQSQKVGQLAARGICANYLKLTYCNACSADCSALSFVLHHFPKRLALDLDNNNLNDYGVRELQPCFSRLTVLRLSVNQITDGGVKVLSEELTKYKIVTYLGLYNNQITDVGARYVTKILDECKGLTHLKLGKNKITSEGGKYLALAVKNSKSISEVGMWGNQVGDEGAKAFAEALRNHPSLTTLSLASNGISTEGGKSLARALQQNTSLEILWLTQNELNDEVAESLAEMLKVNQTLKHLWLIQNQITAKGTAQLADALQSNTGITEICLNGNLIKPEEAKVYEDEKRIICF

[15] = molecular target: T7, Nucleotide-binding oligomerization domain-containing protein 2; test: PubChem AID 2334; assay type: functional
INS1 = test: INS-1E survival protection against cytokine death – cell-based, luminescence, retest, dose response (AID 449756); assay type: functional; details: Rattus norvegicus;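 note: cell death triggered by IL-1 beta plus TNF-alpha plus IFN-gamma mixture; protective hits raise ATP signal compared with cytokine alone wells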
[16] = reduction of Shn3 3'UTR-driven luciferase in osteoblasts – cell-based, Clone20 osteoblasts, firefly luciferase, cherry-picked, dose response (AID 624132); assay type: functional;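 note: firefly luciferase luminescence from reporter carrying the Shn3 3'UTR in osteoblasts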
[17] = non-specific 3'UTR reporter inhibition in Clone20-Shn3RL – cell-based, Renilla luciferase, cherry-picked, counter-screen for Shn3 inhibitor project, dose response (AID 624133); assay type: functional
HEK293 [18] = test: cells; details: Homo sapiens
[19] = molecular target: T9, Apoptotic protease-activating factor 1 (Homo sapiens, UniProt O14727); assay type: functional
T9 sequence (O14727 whole entry): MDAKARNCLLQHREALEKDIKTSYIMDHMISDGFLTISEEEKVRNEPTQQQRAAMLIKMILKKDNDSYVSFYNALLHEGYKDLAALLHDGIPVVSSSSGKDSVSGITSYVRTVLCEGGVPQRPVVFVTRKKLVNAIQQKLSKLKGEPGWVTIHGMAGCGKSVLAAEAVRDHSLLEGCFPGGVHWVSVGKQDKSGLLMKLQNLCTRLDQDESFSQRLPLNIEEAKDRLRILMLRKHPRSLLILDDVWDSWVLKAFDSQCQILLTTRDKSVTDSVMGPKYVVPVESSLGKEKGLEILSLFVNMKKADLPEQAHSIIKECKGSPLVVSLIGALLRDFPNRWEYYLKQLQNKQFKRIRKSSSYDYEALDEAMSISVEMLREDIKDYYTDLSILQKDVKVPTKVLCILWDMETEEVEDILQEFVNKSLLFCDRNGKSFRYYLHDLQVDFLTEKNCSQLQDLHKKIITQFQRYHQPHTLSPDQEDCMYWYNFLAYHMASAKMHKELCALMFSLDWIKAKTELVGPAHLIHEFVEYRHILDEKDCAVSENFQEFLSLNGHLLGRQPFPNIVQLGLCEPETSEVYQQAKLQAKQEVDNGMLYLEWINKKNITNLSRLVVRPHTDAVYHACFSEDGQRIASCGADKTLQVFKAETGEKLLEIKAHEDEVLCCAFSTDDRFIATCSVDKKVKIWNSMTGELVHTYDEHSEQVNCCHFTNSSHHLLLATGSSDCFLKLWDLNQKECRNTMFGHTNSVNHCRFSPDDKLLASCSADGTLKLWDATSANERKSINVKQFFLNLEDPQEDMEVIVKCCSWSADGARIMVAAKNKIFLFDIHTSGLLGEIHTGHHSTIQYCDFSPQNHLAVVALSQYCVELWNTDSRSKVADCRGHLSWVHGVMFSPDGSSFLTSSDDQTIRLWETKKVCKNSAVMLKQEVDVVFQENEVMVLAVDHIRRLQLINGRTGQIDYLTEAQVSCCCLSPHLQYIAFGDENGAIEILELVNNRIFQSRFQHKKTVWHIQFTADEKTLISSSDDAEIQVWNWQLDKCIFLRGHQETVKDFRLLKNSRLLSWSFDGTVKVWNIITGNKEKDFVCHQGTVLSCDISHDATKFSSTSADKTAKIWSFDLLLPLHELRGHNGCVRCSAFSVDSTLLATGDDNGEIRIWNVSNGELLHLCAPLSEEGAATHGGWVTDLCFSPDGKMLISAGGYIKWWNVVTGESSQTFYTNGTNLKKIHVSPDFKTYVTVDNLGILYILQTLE

[20] = microbe, parasite or virus in culture; assay type: functional; details: Mycobacterium tuberculosis

Sequence of Trypsin (P00761 whole entry): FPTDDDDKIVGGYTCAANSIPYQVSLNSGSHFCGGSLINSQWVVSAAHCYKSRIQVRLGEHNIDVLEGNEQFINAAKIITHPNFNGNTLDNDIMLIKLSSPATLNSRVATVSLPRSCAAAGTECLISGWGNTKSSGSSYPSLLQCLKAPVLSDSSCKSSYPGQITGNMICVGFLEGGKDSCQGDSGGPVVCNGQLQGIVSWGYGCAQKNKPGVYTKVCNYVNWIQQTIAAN

## CC(C)C(=O)Nc1c2c(nc3ccccc13)N(C)CC2
Trypsin
  AC50: 12.8 µM (active)
CAAX prenyl protease 2 [1]
  AC50: 36.2 µM (active)
CAAX prenyl protease 2 [2]
  AC50: 24 µM (active)

## Cc1snc2sc(C(=O)c3ccc(Br)cc3)c(N)c12
Estrogen receptor
  IC50: 28.2 µM (active)
Estrogen receptor beta [3]
  IC50: > 50 µM (not active)
Estrogen receptor beta [4]
  IC50: 0.0857 µM (not active)
HeLa
  AC50: 67.4 µM (active)

## COc1ccc(/C=C/c2ccc3c(Br)ccc(O)c3n2)cc1
[5]
  EC50: 117 µM (active)
[6]
  EC50: 0.923 µM (active)
[7]
  EC50: > 300 µM (not active)
Streptococcus
  EC50: 1.66 µM (active)
HeLa
  AC50: 35.9 µM (active)

## CCOC(=O)c1c(C)[nH]c(C)c1C(=O)CSc1nc2ccccc2c(=O)n1-c1ccc(CC)cc1
HEK293 [8]
  EC50: 6.9 µM (active)
HEK293 [9]
  IC50: > 20 µM (inactive)
HEK293 [10]
  IC50: 13.4 µM (active)
[11]
  EC50: 5.86 µM (active)
HEK293 [12]
  IC50: 7.12 µM (active)
HEK293 [13]
  IC50: > 20 µM (inactive)
Tumor necrosis factor
  IC50: 11.1 µM (active)
[14]
  IC50: 15.2 µM (active)
[15]
  IC50: 12 µM (active)
INS1
  AC50: 5.33 µM (active)
[16]
  AC50: 5.36 µM (active)
[17]
  AC50: 6.48 µM (active)
HEK293 [18]
  IC50: > 20 µM (inactive)

## COc1ccc(-n2nc(C(=O)NCC(=O)NC3CCCC(C)C3C)c3ccccc3c2=O)c(OC)c1 (centres undefined)
[19]
  IC50: 14.5 µM (active)

## CCn1nnnc1SCC(=O)Nc1nc(C)c(C)s1
CAAX prenyl protease 2 [2]
  AC50: 9.77 µM (active)

## CC(C)c1ccc2nc(N)sc2c1
[20]
  CC50: > 40 µM (active)
HeLa
  AC50: 54.4 µM (active)
